For three compounds, melting point and IC50 results are on record in patent publication US20040259926A1, “3-Aryloxy and 3-heteroaryloxy substituted benzo[b]thiophenes as therapeutic agents” (priority 2003, published 2004).

In data set [1] the target is T1, PI3Kγ (recombinant p101/p110γ protein) (Homo sapiens, UniProt P48736).
T1 construct: HA; made in house; host or cells: Spodoptera frugiperda (Sf9) cells, baculovirus co-infection
Briefly: PI3Kγ In Vitro Kinase Assay. Conditions: purified recombinant p101/p110γ with G protein β1/γ2 subunits; 20 μM ATP, [γ-32P-ATP]; 25 μM PIP2 lipid micelles; 20 minutes at room temperature. In kind it is biochemical. A digest of the protocol:
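Baculovirus/Sf9-expressed p101/p110γ (~2.7 nM) with Gβ1/γ2 (~57.7 nM) in HEPES/NaCl/EGTA/DTT buffer; 20 μM ATP plus [γ-32P]ATP, micelles of 25 μM PIP2, 300 μM PE, 10 mM MgCl2. Reactions ran 20 minutes at room temperature; radiolabelled PIP3 captured on glass-fibre filters and counted for IC50.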

T1 sequence (P48736 whole entry, species assumed): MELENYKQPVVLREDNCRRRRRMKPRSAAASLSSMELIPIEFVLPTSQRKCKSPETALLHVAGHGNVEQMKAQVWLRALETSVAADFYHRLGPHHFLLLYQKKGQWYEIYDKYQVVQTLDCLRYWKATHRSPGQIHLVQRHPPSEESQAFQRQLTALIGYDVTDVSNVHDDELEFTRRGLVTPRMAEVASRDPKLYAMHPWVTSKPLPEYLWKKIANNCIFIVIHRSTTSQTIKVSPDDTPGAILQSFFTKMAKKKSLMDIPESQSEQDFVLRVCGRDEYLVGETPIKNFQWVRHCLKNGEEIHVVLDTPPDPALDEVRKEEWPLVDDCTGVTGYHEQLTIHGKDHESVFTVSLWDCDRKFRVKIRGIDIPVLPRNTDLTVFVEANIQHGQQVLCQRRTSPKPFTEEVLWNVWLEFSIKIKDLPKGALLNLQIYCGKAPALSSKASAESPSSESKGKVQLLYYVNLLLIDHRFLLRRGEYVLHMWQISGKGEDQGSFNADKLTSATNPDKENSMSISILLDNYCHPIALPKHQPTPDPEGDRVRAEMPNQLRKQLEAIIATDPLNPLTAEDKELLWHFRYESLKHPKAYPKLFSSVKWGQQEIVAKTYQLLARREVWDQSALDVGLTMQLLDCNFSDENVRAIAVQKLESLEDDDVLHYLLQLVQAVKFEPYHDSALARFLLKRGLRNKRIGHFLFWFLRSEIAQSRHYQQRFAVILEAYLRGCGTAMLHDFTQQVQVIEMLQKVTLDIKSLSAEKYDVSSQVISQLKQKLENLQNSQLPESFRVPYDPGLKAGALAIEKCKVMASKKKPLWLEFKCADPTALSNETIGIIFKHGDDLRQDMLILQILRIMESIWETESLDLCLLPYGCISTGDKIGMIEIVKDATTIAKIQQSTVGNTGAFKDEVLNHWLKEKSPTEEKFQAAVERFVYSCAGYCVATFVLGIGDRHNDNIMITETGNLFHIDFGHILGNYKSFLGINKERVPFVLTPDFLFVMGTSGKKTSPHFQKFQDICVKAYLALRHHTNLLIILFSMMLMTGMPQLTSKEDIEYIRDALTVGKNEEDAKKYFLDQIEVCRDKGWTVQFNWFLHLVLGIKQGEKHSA
T1 sequence (Q8WYR1 whole entry partner, species assumed): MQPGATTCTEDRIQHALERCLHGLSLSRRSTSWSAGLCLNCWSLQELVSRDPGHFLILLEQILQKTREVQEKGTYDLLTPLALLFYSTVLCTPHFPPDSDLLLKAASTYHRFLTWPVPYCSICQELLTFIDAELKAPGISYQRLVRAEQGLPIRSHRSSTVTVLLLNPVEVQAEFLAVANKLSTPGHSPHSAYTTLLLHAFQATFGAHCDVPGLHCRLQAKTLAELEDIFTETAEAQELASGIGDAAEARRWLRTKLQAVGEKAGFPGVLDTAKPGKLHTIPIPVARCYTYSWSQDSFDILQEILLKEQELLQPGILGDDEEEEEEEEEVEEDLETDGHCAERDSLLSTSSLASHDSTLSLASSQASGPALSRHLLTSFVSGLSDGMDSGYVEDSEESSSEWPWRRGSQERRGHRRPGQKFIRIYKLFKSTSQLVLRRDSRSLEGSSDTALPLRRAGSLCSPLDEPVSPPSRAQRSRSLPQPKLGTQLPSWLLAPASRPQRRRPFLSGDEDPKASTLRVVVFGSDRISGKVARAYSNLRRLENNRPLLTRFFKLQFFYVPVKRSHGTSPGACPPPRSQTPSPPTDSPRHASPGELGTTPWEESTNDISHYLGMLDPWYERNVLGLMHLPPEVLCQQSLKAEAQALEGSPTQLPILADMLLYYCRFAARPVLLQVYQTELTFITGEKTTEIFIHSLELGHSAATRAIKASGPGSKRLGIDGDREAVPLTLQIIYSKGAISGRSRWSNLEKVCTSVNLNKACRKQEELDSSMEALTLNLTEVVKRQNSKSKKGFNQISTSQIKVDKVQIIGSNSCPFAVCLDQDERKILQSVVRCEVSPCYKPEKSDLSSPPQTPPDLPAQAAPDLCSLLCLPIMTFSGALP

Consider `COc1cc2sc(C(=O)Nc3nnn[nH]3)c(OCc3ccc4ccccc4c3)c2cc1OC` [Example C.9, 5,6-Dimethoxy-3-(naphthalen-2-ylmethoxy)-benzo[b]thiophene-2-carboxylic acid (1H-tetrazol-5-yl)-amide], for which the melting point – broadly, the temperature of the solid-liquid transition – is 204 °C.
With `COc1cc2c(Oc3ccc(C4CCCCC4)cc3)c(C(=O)N(C)c3nn[nH]n3)sc2cc1C` [Example K.2, 3-(4-Cyclohexyl-phenoxy)-5-methoxy-6-methyl-benzo[b]thiophene-2-carboxylic acid methyl-(2H-tetrazol-5-yl)-amide], the melting point was in the range of 197 to 198 °C. In addition, the IC50 (in general, the concentration at which inhibition is half-maximal) in data set [1] worked out at 1.61 µM.
Consider `CCOc1cc2c(Oc3ccc(C4CCCCC4)cc3)c(C(=O)Nc3nnn[nH]3)sc2cc1C` [Example L.1, 3-(4-cyclohexyl-phenoxy)-5-ethoxy-6-methyl-benzo[b]thiophene-2-carboxylic acid (1H-tetrazol-5-yl)-amide], for which the half-maximal inhibitory concentration (IC50) in data set [1] was 0.115 µM.
